Like-named read-outs stand apart in the source and are kept apart here.
Experiments:
[1] = tested on: Trypanosoma brucei Lister 427 strain, bloodstream form; experiment: Assay for proliferation of kinetoplastid parasite Trypanosoma brucei (Cell Titer Glo, 48 hours); assay type: cell-based; details: Trypanosoma brucei, read-out: T. brucei EC50
Outline: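 Bloodstream-form T. brucei Lister 427 in HMI-9 medium was exposed to compound (DMSO vehicle) for 48 hours at 37° C, 5% CO2. Parasite growth was read as ATP by CellTiter-Glo luminescence, with EC50 calculated from percent inhibition.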

[2] = tested on: Trypanosoma cruzi amastigotes (Tulahuen strain expressing Lac-Z) cultured in 3T3 fibroblast cells; experiment: microbe, parasite or virus in culture; assay type: cell-based; details: Trypanosoma cruzi, TULAHUEN, Fibroblast, T. cruzi amastigotes in 3T3 fibroblast cells, read-out: T cruzi EC50
[3] = tested on: Leishmania donovani axenic amastigote parasites; experiment: Leishmania donovani axenic amastigote proliferation assay (Cell TiterGlo luminescence, 2 day incubation); assay type: cell-based; details: Leishmania donovani, read-out: L. donovani amastigotes EC50
[4] = tested on: L. donovani HU3 strain in mouse peritoneal macrophages; experiment: Assay for proliferation of Leishmania parasites in infected mouse peritoneal macrophages (SybrGreen staining, high-content imaging, 5 days); assay type: cell-based, Leishmania donovani; details: Leishmania donovani, Peritoneal macrophage, L. donovani in mouse peritoneal macrophages, read-out: L. donovani Macrophage EC50
[5] = T. brucei Lister 427 bloodstream form, inhibition of proliferation
[6] = axenic amastigotes, inhibition of proliferation
[7] = T. brucei Lister 427 bloodstream form

With `CC(C)OC(=O)Nc1cnc2nc(-c3cc(NC(=O)N4CCC[C@@H]4C(F)(F)F)ccc3Cl)cn2c1` [Compound 260] the EC50 [1, 5] was over 50000 nM, the EC50 ([2]; inhibition of proliferation) was 4550 nM and the EC50 [3, 6] was over 25000 nM. For the same compound, the EC50 ([4]; inhibition of proliferation) was 3830 nM.
Work on `Cc1ncc(C(=O)Nc2ccc(F)c(-c3cn4cc(C5CCOCC5)cnc4n3)c2)o1` [Compound 424] yielded an EC50 [1, 7] of 54 nM, an EC50 [2] of 118 nM and an EC50 ([3]; L. donovani axenic amastigotes) of 56 nM. It also gave an EC50 [4] of 164 nM.
For `Cc1nc(C)c(C(=O)Nc2ccc(F)c(-c3cn4cc(N5CCC[C@@H]5C(F)(F)F)cnc4n3)c2)o1` [Compound 492], the EC50 [1, 7] was 472 nM, the EC50 [2] was 310 nM and the EC50 ([3]; L. donovani axenic amastigotes) was 841 nM. The EC50 [4] was 1520 nM.
In the case of `CC(C)OC(=O)Nc1cnc2nc(-c3cc(NC(=O)C(C)N)ccc3F)cn2c1` (centres unmarked) [Compound 87], the EC50 [1, 5] is reported as over 50000 nM, the EC50 ([2]; inhibition of proliferation) is reported as over 20000 nM and the EC50 [3, 6] is reported as over 25000 nM. For the same compound, the EC50 ([4]; inhibition of proliferation) was over 43700 nM.
`CN(C)c1cnc2nc(-c3cc(NC(=O)N4CC(F)(F)C4)ccc3F)cn2c1` [Compound 466] was tested, and the EC50 [1, 7] was 44 nM, the EC50 [2] was 183 nM and the EC50 ([3]; L. donovani axenic amastigotes) was 158 nM. It also gave an EC50 [4] of 207 nM.
`O=C(Nc1ccc(F)c(-c2cn3cc(NCCC(F)(F)F)cnc3n2)c1)N1CCCC1` [Compound 478] gave an EC50 [1, 7] of 533 nM, an EC50 [2] of 5520 nM and an EC50 ([3]; L. donovani axenic amastigotes) of 4720 nM. The EC50 [4] was over 16400 nM.
In the case of `Cc1nc(C)c(C(=O)Nc2ccc(F)c(-c3cn4cc(NC(=O)C5CN(C)CCO5)cnc4n3)c2)o1` (centres unmarked) [Compound 152], the EC50 [1, 5] is reported as 425 nM, the EC50 ([2]; inhibition of proliferation) is reported as 4670 nM and the EC50 [3, 6] is reported as 1730 nM. It also gave an EC50 ([4]; inhibition of proliferation) of 2380 nM.
`Cc1cc(C(=O)Nc2ccc(F)c(-c3cn4cc(NC(=O)OC(C)C)cnc4n3)c2)on1` [Compound 112] was tested, and the EC50 [1, 5] was 1090 nM, the EC50 ([2]; inhibition of proliferation) was 1270 nM and the EC50 [3, 6] was 2100 nM. The EC50 ([4]; inhibition of proliferation) was 16600 nM.
`CC(C)CN(C)C(=O)Nc1ccc(Cl)c(-c2cn3cc(NC(=O)OC(C)C)cnc3n2)c1` [Compound 249] was tested, and the EC50 [1] was 4070 nM, the EC50 ([2]; inhibition of proliferation) was 1340 nM and the EC50 [3, 6] was 3370 nM. For the same compound, the EC50 ([4]; inhibition of proliferation) was 5550 nM.
Compound `CC1(O)CN(c2cnc3nc(-c4cc(NC(=O)N5CCCC5)ccc4Cl)cn3c2)C1` [Compound 489] has an EC50 [1, 7] of 152 nM, an EC50 [2] of 6710 nM and an EC50 ([3]; L. donovani axenic amastigotes) of 1770 nM. It also gave an EC50 [4] of 7790 nM.
For `CC(C)OC(=O)Nc1cnc2nc(-c3cc(NC(=O)NN)ccc3Cl)cn2c1` [Compound 257], the EC50 [1, 5] was 4650 nM, the EC50 ([2]; inhibition of proliferation) was 4050 nM and the EC50 [3, 6] was 9220 nM. It also gave an EC50 ([4]; inhibition of proliferation) of over 33800 nM.
For `Cc1ccc(-c2cnc3nc(-c4cc(NC(=O)c5oc(C)nc5C)ccc4F)cn3c2)nn1` [Compound 448], the EC50 [1, 7] was 157 nM, the EC50 [2] was 798 nM and the EC50 ([3]; L. donovani axenic amastigotes) was 108 nM. It also gave an EC50 [4] of 5150 nM.
`CCN(C)C(=O)Nc1ccc(F)c(-c2cn3cc(-c4ccccc4)cnc3n2)c1` [Compound 327] gave an EC50 [1, 5] of 102 nM, an EC50 ([2]; inhibition of proliferation) of 50 nM and an EC50 [3, 6] of 167 nM. It also gave an EC50 ([4]; inhibition of proliferation) of 459 nM.
`Cc1nc(C)c(C(=O)Nc2ccc(F)c(-c3cn4cc(NC(=O)[C@@H]5CCCO5)cnc4n3)c2)o1` [Compound 161] was tested, and the EC50 [1, 5] was 170 nM, the EC50 ([2]; inhibition of proliferation) was 2540 nM and the EC50 [3, 6] was 206 nM. For the same compound, the EC50 ([4]; inhibition of proliferation) was 655 nM.
Work on `Cc1nc(C)c(C(=O)Nc2ccc(F)c(-c3cn4cc(-c5cc(F)ccn5)cnc4n3)c2)o1` [Compound 435] yielded an EC50 [1, 7] of 42 nM, an EC50 [2] of 16 nM and an EC50 ([3]; L. donovani axenic amastigotes) of 19 nM. It also gave an EC50 [4] of 49 nM.
With `CC(C)c1cnc2nc(-c3cc(NC(=O)N4CC(F)(F)C4)ccc3F)cn2c1` [Compound 416] the EC50 [1, 7] was 41 nM, the EC50 [2] was 47 nM and the EC50 ([3]; L. donovani axenic amastigotes) was 30 nM. It also gave an EC50 [4] of 93 nM.
`Cn1ccnc1C(=O)Nc1cnc2nc(-c3cc(NC(=O)N4CCCC4)ccc3F)cn2c1` [Compound 144] gave an EC50 [1, 5] of 164 nM, an EC50 ([2]; inhibition of proliferation) of over 20000 nM and an EC50 [3, 6] of 555 nM. It also gave an EC50 ([4]; inhibition of proliferation) of over 50000 nM.
Work on `Cc1ccc(-c2cnc3nc(-c4cc(NC(=O)c5oc(C)nc5C)ccc4F)cn3c2)cn1` [Compound 441] yielded an EC50 [1, 7] of 309 nM, an EC50 [2] of 141 nM and an EC50 ([3]; L. donovani axenic amastigotes) of 97 nM. The EC50 [4] was 912 nM.
Compound `Cc1nc(C)c(C(=O)Nc2ccc(F)c(-c3cn4cc(N(C)C(=O)OC(C)C)cnc4n3)c2)o1` [Compound 552] has an EC50 [1, 7] of 240 nM, an EC50 [2] of 326 nM and an EC50 ([3]; L. donovani axenic amastigotes) of 420 nM. For the same compound, the EC50 [4] was 967 nM.
For `CCC(=O)Nc1ccc(Cl)c(-c2cn3cc(NC(=O)OC(C)C)cnc3n2)c1` [Compound 247], the EC50 [1, 5] was 367 nM, the EC50 ([2]; inhibition of proliferation) was 575 nM and the EC50 [3, 6] was 740 nM. For the same compound, the EC50 ([4]; inhibition of proliferation) was 3250 nM.

— patent US20160045505A1, “COMPOUNDS AND COMPOSITIONS FOR THE TREATMENT OF PARASITIC DISEASES” (NOVARTIS AG, priority 2013, published 2016)
